Results as given in US10562850B2, “Human plasma kallikrein inhibitors” (priority 2015, dated 2020).

B1: C1-inhibitor: a physiological inhibitor (C1-inhibitor) (protein, UniProt P05155 23-500, looked up)
Plasma protease C1 inhibitor: NPNATSSSSQDPESLQDRGEGKVATTVISKMLFVEPILEVSSLPTTNSTTNSATKITANTTDEPTTQPTTEPTTQPTIQPTQPTTQLPTDSPTQPTTGSFCPGPVTLCSDLESHSTEAVLGDALVDFSLKLYHAFSAMKKVETNMAFSPFSIASLLTQVLLGAGENTKTNLESILSYPKDFTCVHQALKGFTTKGVTSVSQIFHSPDLAIRDTFVNASRTLYSSSPRVLSNNSDANLELINTWVAKNTNNKISRLLDSLPSDTRLVLLNAIYLSAKWKTTFDPKKTRMEPFHFKNSVIKVPMMNSKKYPVAHFIDQTLKAKVGQLQLSHNLSLVILVPQNLKHRLEDMEQALSPSVFKAIMEKLEMSKFQPTLLTLPRIKVTTSQDMLSIMEKLEFFDFSYDLNLCGLTEDPDLQVSAMQHQTVLELTETGVEAAAASAISVARTLLVFEVQQPFLFVLWDQQHKFPVFMGRVYDPRA

Legend:
[1] = tested on: patients with hereditary angioedema (HAE); conditions: cited from earlier work
[2] = tested on: animal model of ischemic stroke; conditions: cited from earlier work
human plasma kallikrein = human plasma kallikrein (Homo sapiens (Human), UniProt P03952); assay: Plasma Kallikrein Activity Assay (chromogenic substrate S2302); assay type: biochemical; conditions: 2 nM kallikrein, 80 μM S2302, 30° C., pH 7.8; Cheng-Prusoff
Chain of human plasma kallikrein (P03952 391-638): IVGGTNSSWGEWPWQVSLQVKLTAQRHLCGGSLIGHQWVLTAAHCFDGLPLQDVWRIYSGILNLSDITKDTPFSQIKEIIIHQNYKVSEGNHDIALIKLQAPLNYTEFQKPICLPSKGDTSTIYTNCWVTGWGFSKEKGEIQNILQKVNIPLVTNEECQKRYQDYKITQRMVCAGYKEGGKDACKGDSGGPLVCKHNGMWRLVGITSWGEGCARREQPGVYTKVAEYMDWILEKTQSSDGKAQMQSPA
Chain of human plasma kallikrein (P03952 20-390 partner): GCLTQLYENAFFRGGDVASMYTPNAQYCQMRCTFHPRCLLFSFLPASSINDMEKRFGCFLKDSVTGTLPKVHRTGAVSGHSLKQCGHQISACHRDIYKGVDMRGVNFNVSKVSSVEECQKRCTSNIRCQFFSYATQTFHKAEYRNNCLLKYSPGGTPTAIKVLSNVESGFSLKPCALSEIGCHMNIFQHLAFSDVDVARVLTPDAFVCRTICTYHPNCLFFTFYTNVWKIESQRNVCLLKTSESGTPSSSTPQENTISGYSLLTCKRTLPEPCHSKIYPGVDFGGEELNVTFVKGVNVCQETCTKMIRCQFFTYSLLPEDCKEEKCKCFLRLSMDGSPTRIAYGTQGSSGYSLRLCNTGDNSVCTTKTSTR
Summary of the method: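 2 nM human plasma kallikrein incubated at 30° C with 80 μM S2302 and increasing compound concentrations in 50 mM Tris-HCl pH 7.8, 200 mM NaCl, 2.5 mM CaCl2. Activity read as absorbance change at 405 nm; four-parameter logistic fit, Ki by Cheng-Prusoff.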

rat models of arthritis = conditions: cited from earlier work
sepsis patients = conditions: cited from earlier work
[3] = tested on: mouse model of middle cerebral artery occlusion (MCAO); conditions: cited from earlier work

Row | Molecule | Ki (human plasma kallikrein) [µM] | other results
1 | NC(N)=NCCC[C@@H](N)C(=O)N[C@@H](CCCN=C(N)N)C(=O)N1CCC[C@H]1C(=O)N1C[C@H](O)C[C@H]1C(=O)NCC(=O)N[C@@H](Cc1cccs1)C(=O)N[C@@H](CO)C(=O)N1Cc2ccccc2C[C@@H]1C(=O)N1[C@H](C(=O)N[C@@H](CCCN=C(N)N)C(=O)O)C[C@@H]2CCCC[C@@H]21 [Icatibant] |  | treating HAE [1]: effective in treating HAE
2 | ecallantide [DX-88] |  | edema in patients with hereditary angioedema (HAE) [1]: alleviates edema; brain edema, infarct volume, and neurological deficits [2]: reduced brain edema, infarct volume, and neurological deficits
3 | N#Cc1cccc(C(N)(CCC2CC2)c2ccc(F)c(NC(=O)[C@H]3C[C@](O)(c4ccccc4)CN3C(=O)Nc3ccc(Cl)cc3)c2)c1 (stereo partly drawn) [Compound 30a, (2R,4S)-N2-(5-((+)-1-amino-1-(3-cyanophenyl)-3-cyclopropylpropyl)-2-fluorophenyl)-N1-(4-chlorophenyl)-4-hydroxy-4-phenylpyrrolidine-1,2-dicarboxamide] | < 0.05 | 
4 | CC(C)(C)[S@@+]([O-])NC(CCC1CC1)(c1cccc(C#N)c1)c1ccc(F)c(NC(=O)[C@H]2CCCN2C(=O)OCc2ccccc2)c1 (stereo partly drawn) [Compound 12b, (R)-benzyl 2-(5-((−)-1-(3-cyanophenyl)-3-cyclopropyl-1-((R)-1,1-dimethylethylsulfinamido)propyl)-2-fluorophenylcarbamoyl)pyrrolidine-1-carboxylate] | > 0.1 | 
5 | CO[C@]1(c2ccccc2)C[C@H](C(=O)Nc2cc(C(N)(CCC3CC3)c3ccncc3)ccc2F)N(C(=O)Nc2ccc(Cl)cn2)C1 (stereo partly drawn) [Compound 45c, (2R,4S)-N2-(5-((+)-1-amino-3-cyclopropyl-1-(pyridin-4-yl)propyl)-2-fluorophenyl)-N1-(5-chloropyridin-2-yl)-4-methoxy-4-phenylpyrrolidine-1,2-dicarboxamide] | > 0.1 | 
6 | Cc1ccc(NC(=O)N2C[C@H](O)C[C@@H]2C(=O)Nc2cc(C(N)(CCC3CC3)c3cccc(C#N)c3)ccc2F)cc1 (stereo partly drawn) [Compound 22b, (2R,4R)-N2-(5-((+)-1-amino-1-(3-cyanophenyl)-3-cyclopropylpropyl)-2-fluorophenyl)-4-hydroxy-N1-p-tolylpyrrolidine-1,2-dicarboxamide] | > 0.1 | 
7 | N#Cc1cccc(C(CCC2CC2)(NC(=O)Nc2ccc(Cl)cc2)c2ccc(F)c(NC(=O)[C@H]3C[C@](O)(c4ccccc4)CN3C(=O)Nc3ccc(Cl)cc3)c2)c1 (stereo partly drawn) [Compound 30b, (2R,4S)-N1-(4-chlorophenyl)-N2-(5-((+)-1-(3-(4-chlorophenyl)ureido)-1-(3-cyanophenyl)-3-cyclopropylpropyl)-2-fluorophenyl)-4-hydroxy-4-phenylpyrrolidine-1,2-dicarboxamide] | 0.05 to 0.1 | 
8 | NC(CCC1CC1)(c1ccncc1)c1ccc(F)c(NC(=O)[C@H]2C[C@](O)(C3CC3)CN2C(=O)Nc2ccc(Cl)cn2)c1 (stereo partly drawn) [Compound 59d, (2R,4S)-N2-(5-((+)-1-amino-3-cyclopropyl-1-(pyridin-4-yl)propyl)-2-fluorophenyl)-N1-(5-chloropyridin-2-yl)-4-cyclopropyl-4-hydroxypyrrolidine-1,2-dicarboxamide] | < 0.05 | 
9 | CO[C@]1(c2ccccc2)C[C@H](C(=O)Nc2cc(C(N)(CCC3CC3)c3ccccn3)ccc2F)N(C(=O)Nc2ccc(Cl)cc2)C1 (stereo partly drawn) [Compound 34d, (2R,4S)-N2-(5-((+)-1-amino-3-cyclopropyl-1-(pyridin-2-yl)propyl)-2-fluorophenyl)-N1-(4-chlorophenyl)-4-methoxy-4-phenylpyrrolidine-1,2-dicarboxamide] | < 0.05 | 
10 | CC(C)(C)[S@@+]([O-])NC(CCC1CC1)(c1cccc(C#N)c1)c1ccc(F)c(NC(=O)[C@H]2C[C@@H](O)CN2C(=O)Nc2ccc(C(F)(F)F)cc2)c1 (stereo partly drawn) [Compound 27a, (2R,4R)-N2-(5-((+)-1-(3-cyanophenyl)-3-cyclopropyl-1-((R)-1,1-dimethylethylsulfinamido)propyl)-2-fluorophenyl)-4-hydroxy-N1-(4-(trifluoromethyl)phenyl)pyrrolidine-1,2-dicarboxamide] | > 0.1 | 
11 | N#Cc1cccc(C(N)(CCC2CC2)c2ccc(F)c(NC(=O)[C@H]3C[C@](O)(c4ccccc4)CN3C(=O)Nc3ccc(Cl)cn3)c2)c1 (stereo partly drawn) [Compound 29e, (2R,4S)-N2-(5-((+)-1-amino-1-(3-cyanophenyl)-3-cyclopropylpropyl)-2-fluorophenyl)-N1-(5-chloropyridin-2-yl)-4-hydroxy-4-phenylpyrrolidine-1,2-dicarboxamide] | < 0.05 | 
12 | N#Cc1cccc(C(N)(CCC2CC2)c2ccc(F)c(NC(=O)[C@H]3C[C@H](N)CN3C(=O)Nc3ccc(Cl)cc3)c2)c1 (stereo partly drawn) [Compound 33d, (2R,4S)-4-amino-N2-(5-((+)-1-amino-1-(3-cyanophenyl)-3-cyclopropylpropyl)-2-fluorophenyl)-N1-(4-chlorophenyl)pyrrolidine-1,2-dicarboxamide] | > 0.1 | 
13 | CO[C@@H]1C[C@H](C(=O)Nc2cc(C(N)(CCC3CC3)c3cccc(C#N)c3)ccc2F)N(C(=O)Nc2ccc(Cl)cc2)C1 (stereo partly drawn) [Compound 17b, (2R,4R)-N2-(5-((+)-1-amino-1-(3-cyanophenyl)-3-cyclopropylpropyl)-2-fluorophenyl)-4-methoxy-N1-(4-chlorophenyl)pyrrolidine-1,2-dicarboxamide] | 0.05 to 0.1 | 
14 | CNC(CCC1CC1)(c1ccncc1)c1ccc(F)c(NC(=O)[C@H]2C[C@](O)(c3ccccc3)CN2C(=O)Nc2ccc(Cl)cn2)c1 (stereo partly drawn) [Compound 41a, (2R,4S)-N1-(5-chloropyridin-2-yl)-N2-(5-((+)-3-cyclopropyl-1-(methylamino)-1-(pyridin-4-yl)propyl)-2-fluorophenyl)-4-hydroxy-4-phenylpyrrolidine-1,2-dicarboxamide] | < 0.05 | 
15 | Cl.NCC1CCC(C(=O)N[C@@H](Cc2ccccc2)C(=O)Nc2ccc(CC(=O)O)cc2)CC1 (stereo partly shown) [PKSI-527] |  | joint swelling (rat models of arthritis): reduce joint swelling
16 | CCO[C@@H]1C[C@H](C(=O)Nc2cc(C(CCC3CC3)(NS(C)(=O)=O)c3ccncc3)ccc2F)N(C(=O)Nc2ccc(Cl)cn2)C1 (stereo partly drawn) [Compound 55a, (2R,4R)-N1-(5-chloropyridin-2-yl)-N2-(5-((+)-3-cyclopropyl-1-(methylsulfonamido)-1-(pyridin-4-yl)propyl)-2-fluorophenyl)-4-ethoxypyrrolidine-1,2-dicarboxamide] | < 0.05 | 
17 | B1 |  | clinical outcome in sepsis patients (sepsis patients): Clinical improvement was observed; infarct size [3]: reduced infarct size
